Data as given in US12180187B2, “1-phenyl-5-azinylpyrazolyl-3-oxyalkyl acids and their use for controlling unwanted plant growth” (BAYER AKTIENGESELLSCHAFT, priority 2019, dated 2024).

Legend:
DIGSA [1] = assay: Pre-emergence action against DIGSA, 1280 g/ha; type: in vivo, Digitaria sanguinalis; conditions: visual scoring after about 3 weeks vs untreated controls, 100% = plants have died, 0% = like control plants
Procedure, shortened: (§1)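 Percent herbicidal effect, judged by eye relative to untreated pots around 3 weeks after soil-surface treatment. Application: formulated compound in water, 600 L/ha, 0.5% additive, on soil over sown seeds; greenhouse.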

ALOMY [2] = assay: Pre-emergence action against ALOMY, 1280 g/ha; type: in vivo, Alopecurus myosuroides; conditions: visual scoring after about 3 weeks vs untreated controls, 100% = plants have died, 0% = like control plants
Procedure, shortened: as §1

POAAN [3] = assay: Pre-emergence action against POAAN, 1280 g/ha; type: in vivo, Poa annua; conditions: visual scoring after about 3 weeks vs untreated controls, 100% = plants have died, 0% = like control plants
Procedure, shortened: as §1

ECHCG [4] = assay: Post-emergence action against ECHCG, 1.28 kg/ha; type: in vivo, Echinochloa crus-galli; conditions: dosage 1280 g/ha, visual rating about 3 weeks after treatment vs untreated controls
Procedure, shortened: (§2)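 Visual rating against untreated plants about 3 weeks after spraying gives % activity, where 0% means like controls and 100% means plants died. Plants were treated post-emergence at the one-leaf stage with compound formulated as wettable powder or emulsion concentrate, applied at 600 L water/ha plus 0.5% additive.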

ABUTH = assay: Pre-emergence action against ABUTH, 1280 g/ha; type: in vivo, Abutilon theophrasti; conditions: scored visually after about 3 weeks vs untreated controls (100% = plants have died)
Source text: 1. Pre-Emergence Herbicidal Effect and Crop Plant Compatibility a) Seeds of mono- and dicotyledonous weed plants are placed in plastic pots in sandy loam soil (doubly sown with one species each of mono- or dicotyledonous weed plants per pot) and covered with soil. The compounds of the invention, formulated in the form of wettable powders (WP) or as emulsion concentrates (EC), are then applied onto the surface of the covering soil as aqueous suspension or emulsion with addition of 0.5% additive at a water application rate equivalent to 600 litres per hectare. After the treatment, the pots are placed in a greenhouse and kept under good growth conditions for the trial plants. After about 3 weeks, the effect of the preparations is scored visually in comparison with untreated controls as percentages. For example, 100% activity=the plants have died, 0% activity=like control plants. 1. Pre-Emergence Effectiveness Tables 1 to 12 below show the effects of selected compounds of the general formula (I) according to Tables 1 and 2 on various harmful plants and at an application rate corresponding to 1280 g/ha, which were obtained by the experimental procedure mentioned above.

MATIN [5] = assay: Pre-emergence action against MATIN, 1280 g/ha; type: in vivo, Tripleurospermum inodorum (Matricaria inodora); conditions: scored visually after about 3 weeks vs untreated controls (100% = plants have died)
Procedure, shortened: as §1

VERPE [6] = assay: Post-emergence action against VERPE, 1.28 kg/ha; type: in vivo, Veronica persica; conditions: dosage 1280 g/ha, visual rating about 3 weeks after treatment vs untreated controls (100% = plants died)
Procedure, shortened: as §2

AMARE [7] = assay: Pre-emergence action against AMARE, 1280 g/ha; type: in vivo, Amaranthus retroflexus; conditions: scored visually after about 3 weeks vs untreated controls (100% = plants have died)
Procedure, shortened: as §1

ECHCG [8] = assay: Pre-emergence action against ECHCG, 1280 g/ha; type: in vivo, Echinochloa crus-galli; conditions: visual scoring after about 3 weeks vs untreated controls, 100% = plants have died, 0% = like control plants
Procedure, shortened: as §1

POAAN [9] = assay: Post-emergence action against POAAN, 1.28 kg/ha; type: in vivo, Poa annua; conditions: dosage 1280 g/ha, visual rating about 3 weeks after treatment vs untreated controls
Procedure, shortened: as §2

STEME = assay: Pre-emergence action against STEME, 1280 g/ha; type: in vivo, Stellaria media; conditions: scored visually after about 3 weeks vs untreated controls (100% = plants have died)
Procedure, shortened: as §1

VERPE [10] = assay: Pre-emergence action against VERPE, 1280 g/ha; type: in vivo, Veronica persica; conditions: scored visually after about 3 weeks vs untreated controls (100% = plants have died)
Procedure, shortened: as §1

SETVI [11] = assay: Pre-emergence action against SETVI, 1280 g/ha; type: in vivo, Setaria viridis; conditions: visual scoring after about 3 weeks vs untreated controls, 100% = plants have died, 0% = like control plants
Procedure, shortened: as §1

POLCO = assay: Pre-emergence action at 320 g/ha against POLCO; type: in vivo, Fallopia convolvulus (Polygonum convolvulus); conditions: visual scoring after about 3 weeks vs untreated controls
Procedure, shortened: (§3)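 Weed and crop seeds sown in pots and covered with soil; WP or EC formulations sprayed pre-emergence onto the soil surface at 320 g/ha with 0.5% additive in 600 l/ha water. Kept in greenhouse; after about 3 weeks activity scored visually as % versus untreated controls (100% = plants dead, 0% = as control).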

LOLRI [12] = assay: Pre-emergence action at 320 g/ha against LOLRI; type: in vivo, Lolium rigidum; conditions: visual scoring after about 3 weeks vs untreated controls
Procedure, shortened: as §3

VERPE [13] = assay: Pre-emergence action at 320 g/ha against VERPE; type: in vivo, Veronica persica; conditions: visual scoring after about 3 weeks vs untreated controls
Procedure, shortened: as §3

SETVI [14] = assay: Pre-emergence action at 320 g/ha against SETVI; type: in vivo, Setaria viridis; conditions: visual scoring after about 3 weeks vs untreated controls
Procedure, shortened: as §3

MATIN [15] = assay: Pre-emergence action at 320 g/ha against MATIN; type: in vivo, Tripleurospermum inodorum (Matricaria inodora); conditions: visual scoring after about 3 weeks vs untreated controls
Procedure, shortened: as §3

DIGSA [16] = assay: Pre-emergence action at 320 g/ha against DIGSA; type: in vivo, Digitaria sanguinalis; conditions: visual scoring after about 3 weeks vs untreated controls
Procedure, shortened: as §3

AVEFA [17] = assay: Pre-emergence action at 320 g/ha against AVEFA; type: in vivo; conditions: visual scoring after about 3 weeks vs untreated controls
Procedure, shortened: as §3

ALOMY [18] = assay: Pre-emergence action at 320 g/ha against ALOMY; type: in vivo, Alopecurus myosuroides; conditions: scored visually after about 3 weeks vs untreated controls (100% = plants have died)
Procedure, shortened: as §3

AVEFA [19] = assay: Post-emergence action at 320 g/ha against AVEFA; type: in vivo; conditions: visual rating about 3 weeks after treatment vs untreated controls
Source text: Accordingly, the compounds of the invention have good herbicidal action against a broad spectrum of weed grasses and broad-leaved weeds and are therefore suitable for controlling unwanted vegetation by the post-emergence method. • b) Seeds of monocotyledonous and dicotyledonous weeds and crop plants are placed in sandy loam in plastic or organic planting pots, covered with soil and cultivated in a greenhouse under controlled growth conditions. 2 to 3 weeks after sowing, the test plants are treated at the one-leaf stage. The compounds of the invention, formulated in the form of wettable powders (WP) or as emulsion concentrates (EC), are then sprayed onto the green parts of the plants as aqueous suspension or emulsion with addition of 0.5% additive at a water application rate of 600 l/ha (converted). After the test plants have been kept in the greenhouse under optimum growth conditions for about 3 weeks, the activity of the preparations is rated visually in comparison to untreated controls. For example, 100% activity=the plants have died, 0% activity=like control plants. Tables 39 to 49 below show the effects of selected compounds of the general formula (I) according to Tables 1 and 2 on various harmful plants and at an application rate corresponding to 320 g/ha, which were obtained by the experimental procedure mentioned above.

LOLRI [20] = assay: Pre-emergence action against LOLRI, 1280 g/ha; type: in vivo, Lolium rigidum; conditions: visual scoring after about 3 weeks vs untreated controls, 100% = plants have died, 0% = like control plants
Procedure, shortened: as §1

AMARE [21] = assay: Pre-emergence action at 320 g/ha against AMARE; type: in vivo, Amaranthus retroflexus; conditions: visual scoring after about 3 weeks vs untreated controls
Procedure, shortened: as §3

AMARE [22] = assay: Post-emergence action against AMARE, 1.28 kg/ha; type: in vivo, Amaranthus retroflexus; conditions: dosage 1280 g/ha, visual rating about 3 weeks after treatment vs untreated controls (100% = plants died)
Procedure, shortened: as §2

MATIN [23] = assay: Post-emergence action against MATIN, 1.28 kg/ha; type: in vivo, Tripleurospermum inodorum (Matricaria inodora); conditions: dosage 1280 g/ha, visual rating about 3 weeks after treatment vs untreated controls (100% = plants died)
Procedure, shortened: as §2

VIOTR = assay: Pre-emergence action at 320 g/ha against VIOTR; type: in vivo, Viola tricolor; conditions: dosage 320 g/ha
Procedure, shortened: as §3

KCHSC = assay: Pre-emergence action against KCHSC, 1280 g/ha; type: in vivo, Bassia scoparia; conditions: scored visually after about 3 weeks vs untreated controls (100% = plants have died)
Procedure, shortened: as §1

SMILES	Pre-emergence action against DIGSA (DIGSA [1]) [%]	Pre-emergence action against ALOMY (ALOMY [2]) [%]	Pre-emergence action against POAAN (POAAN [3]) [%]	Pre-emergence action against MATIN (MATIN [5]) [%]	Post-emergence action against VERPE (VERPE [6]) [%]	Pre-emergence action against AMARE (AMARE [7]) [%]	Pre-emergence action against ECHCG (ECHCG [8]) [%]	Post-emergence action against POAAN (POAAN [9]) [%]	Pre-emergence action against STEME (STEME) [%]	Pre-emergence action against VERPE (VERPE [10]) [%]	Pre-emergence action against SETVI (SETVI [11]) [%]	other results
CN(C)C(=O)COc1nn(-c2ccccc2F)c(-c2ccc(F)nc2)c1Br [Example X-027]	100	100	100	90	100	100	100	100	90	100	100	Post-emergence action against ECHCG (ECHCG [4]): 90%; Pre-emergence action against ABUTH (ABUTH): 90%
C[C@@H](Oc1nn(-c2ccccc2F)c(-c2cncnc2)c1[N+](=O)[O-])C(=O)O [VI-016]	100	90	100	100	90	100	100	100	100	100	100	Pre-emergence action against POLCO in % (POLCO): 90%; Pre-emergence action against LOLRI in % (LOLRI [12]): 100%; Pre-emergence action against VERPE in % (VERPE [13]): 100%; Pre-emergence action against SETVI in % (SETVI [14]): 100%; Pre-emergence action against MATIN in % (MATIN [15]): 100%; Pre-emergence action against DIGSA in % (DIGSA [16]): 100%; Pre-emergence action against AVEFA in % (AVEFA [17]): 80%; Pre-emergence action at 320 g/ha against ALOMY in % (ALOMY [18]): 100%; Post-emergence action against AVEFA in % (AVEFA [19]): 90%; Pre-emergence action against LOLRI (LOLRI [20]): 100%; Pre-emergence action against AMARE in % (AMARE [21]): 100%; Post-emergence action against AMARE (AMARE [22]): 100%; Post-emergence action against MATIN (MATIN [23]): 90%; Pre-emergence action against VIOTR in % (VIOTR): 100%; Pre-emergence action against KCHSC (KCHSC): 100%
